{"source": "patent US12156862B2", "about": "“Medicaments for the treatment of vasoconstriction related diseases or disorders” (Sulfateq B.V., priority 2017, dated 2024)", "key": {"α1 adrenoceptor": {"system": "α1 adrenoceptor", "assay": "Phenylephrine-induced constriction of isolated porcine intrarenal arteries (myography)", "protocol": "(§1) Porcine kidneys were obtained from a local slaughterhouse (Kroon Vlees, Gotenburgweg 30, 9723 TM Groningen. The Netherlands) and transported on ice in normal physiological Krebs buffer containing 120 mM NaCl, 6 mM KCl, 2.5 mM CaCl2×2H2O, 1.2 mM MgCl2×6H2O, 1.2 mM NaH2PO4×H2O, 25 mM NaHCO3 and 11.4 mM D-(+)-Glucose monohydrate (all ingredients were purchased from Merck) in ultrapure water.\n(§2) The renal artery tree was dissected from the kidney, cleaned of surrounding connective tissue and cut into equally-sized ring segments (2 mm in length). In some rings, endothelium denudation was performed by gentle rubbing of the intimal surface with a paper clip. Rings were mounted in organ baths as described previously (Buikema et al., 2000). Arterial rings were washed thoroughly by replacing Krebs buffer and allowed to equilibrate for a period of 60 min under 1.4 g of resting tension before they were assessed for viability by inducing 2 subsequent constrictions with KCl (60 mM). […] After washout and stabilization, rings were treated for 30 minutes by incubation with vehicle (0.1% DMSO), SUL-121, SUL-150 or SUL-151, followed by subsequent incubation with cumulative doses of phenylephrine.\nDose-dependent constriction responses to phenylephrine (10^−8M-10^−4M) were recorded in said isolated porcine intrarenal arteries. Buffer was warmed to 37° C. and aerated with 95% O2 and 5% CO2 before use.\nVascular constriction responses are expressed as percentage of final response to KCl. Data are expressed as mean±SEM. *p<0.05.\nTo explore the effects of the enantiomers of (6-hydroxy-2,5,7,8-tetramethylchroman-2-yl)(piperazin-1-yl)methanone (SUL-150 and SUL-151) on constriction of isolated porcine intrarenal arteries, cumulative dose response curves to the α1 adrenoceptor agonist phenylephrine (PE) were constructed in the presence and absence of SUL-150 and SUL-151."}, "α1A adrenoceptor": {"target": "T1, α1A adrenoceptor (Homo sapiens, UniProt P35348)", "T1 construct": "expressed in transfected cells; host or cells: CHO-K1", "T1 sequence (P35348 1-466)": "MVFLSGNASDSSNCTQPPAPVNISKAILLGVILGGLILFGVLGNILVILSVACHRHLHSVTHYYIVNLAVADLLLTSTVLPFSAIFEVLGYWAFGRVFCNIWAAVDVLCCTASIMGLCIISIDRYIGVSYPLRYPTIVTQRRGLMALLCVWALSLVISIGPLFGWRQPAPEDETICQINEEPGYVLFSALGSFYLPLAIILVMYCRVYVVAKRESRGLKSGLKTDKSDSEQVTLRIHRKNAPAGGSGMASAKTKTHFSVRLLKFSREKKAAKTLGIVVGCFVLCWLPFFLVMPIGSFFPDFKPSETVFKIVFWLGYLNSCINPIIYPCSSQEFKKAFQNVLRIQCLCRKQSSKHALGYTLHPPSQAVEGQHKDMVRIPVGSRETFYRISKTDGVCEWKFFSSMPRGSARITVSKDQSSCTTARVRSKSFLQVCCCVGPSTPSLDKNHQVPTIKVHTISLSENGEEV", "assay": "Radiolabeled prazosin displacement binding assay in α1A adrenoceptor transgenic CHO cells", "conditions": "[7-Methoxy-3H]-prazosin", "from_the_text": "We therefore explored whether SUL-150 could directly interact with the α1 adrenoceptor as a receptor antagonist."}, "EGFR transactivation": {"system": "EGFR transactivation", "assay": "Phenylephrine-induced constriction of porcine intrarenal arteries pre-treated with EGFR blocker AG1478", "conditions": "AG1478 20 μM and SUL-150 50 μM", "protocol": "Inhibition of EGF receptor (EGFR) transactivation is known to inhibit α1 adrenoceptor mediated constrictions (REF). Therefore, we investigated the role of EGFR transactivation in SUL-150 mediated inhibition of vasoconstriction. For this, porcine intrarenal arteries were pre-treated with the EGFR blocker AG1478 (FIG. 3). First, an initial measurement was performed to determine the dose of AG1478 which would cause maximal inhibition of vascular constriction induced by PE (FIG. 3A). Subsequently, isolated arteries were treated with AG1478 (20 μM) and SUL-150 (50 μM) and studied for PE-induced vasoconstriction."}, "[1]": {"system": "porcine intrarenal arteries (histamine induced constrictions)", "assay": "Histamine-induced constriction of isolated porcine intrarenal arteries", "conditions": "for logEC50 of histamine-induced constriction responses: Porcine renalis", "protocol": "as §1, §2\n(§3) To gain insight into receptor specificity of SUL-150, the effects of SUL-150 on histamine and U46619 (a synthetic thromboxane agonist) induced constrictions were investigated (FIG. 2)."}, "TP receptors": {"target": "T2, TP receptors (Homo sapiens, UniProt P21731)", "T2 construct": "HeLa cells endogenously expressing histamine and TP receptors; endogenous in cells; host or cells: HeLa", "T2 sequence (P21731 1-343)": "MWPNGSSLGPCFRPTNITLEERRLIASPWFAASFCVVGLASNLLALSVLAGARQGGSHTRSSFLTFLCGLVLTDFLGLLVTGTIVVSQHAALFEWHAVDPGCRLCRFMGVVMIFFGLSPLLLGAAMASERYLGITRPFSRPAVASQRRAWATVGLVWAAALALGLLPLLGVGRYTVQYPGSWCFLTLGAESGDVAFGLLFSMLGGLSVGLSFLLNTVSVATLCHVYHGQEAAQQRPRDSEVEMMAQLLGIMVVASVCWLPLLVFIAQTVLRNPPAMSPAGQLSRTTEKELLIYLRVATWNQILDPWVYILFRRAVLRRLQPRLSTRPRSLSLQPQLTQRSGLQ", "assay": "U46619-induced intracellular calcium transients in HeLa cells", "assay_type": "cell-based", "protocol": "(§4) HeLa cells endogenously expressing histamine and TP receptors were grown in DMEM-F12 medium enriched with 10% FBS and 1% penicillin-streptomycin. Cells were kept in a tissue culture incubator at 37° C. in […] atmosphere and grown in 75 cm^2 non-treated cell culture flasks. Plating was performed 24 hours before measurement on black transparent-bottom 96-well plates at 20,000 cells per well density.\n(§5) To confirm specificity of SUL-150 for the α1 adrenoceptor additionally histamine and U46619 induced calcium transients were studied in HeLa cells endogenously expressing human histamine H1 receptor."}, "thromboxane receptors": {"target": "T3, thromboxane receptors (Sus scrofa, UniProt A0A287A102)", "T3 construct": "from tissue; host or cells: porcine intrarenal artery rings", "T3 sequence (A0A287A102 1-343)": "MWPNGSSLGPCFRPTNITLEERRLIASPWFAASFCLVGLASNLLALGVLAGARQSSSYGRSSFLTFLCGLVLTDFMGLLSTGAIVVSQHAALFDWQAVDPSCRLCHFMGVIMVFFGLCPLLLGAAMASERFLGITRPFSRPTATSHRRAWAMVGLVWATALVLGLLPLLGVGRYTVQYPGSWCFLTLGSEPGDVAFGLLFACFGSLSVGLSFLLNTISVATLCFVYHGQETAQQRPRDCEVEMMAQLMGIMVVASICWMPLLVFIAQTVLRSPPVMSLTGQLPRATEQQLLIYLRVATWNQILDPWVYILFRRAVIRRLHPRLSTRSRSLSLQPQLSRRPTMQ", "assay": "U46619-induced constriction of isolated porcine intrarenal arteries", "conditions": "for logEC50 of U46619-induced constriction responses: Porcine renalis", "protocol": "as §1, §2, §3"}, "[2]": {"target": "T4, human histamine H1 receptor (Homo sapiens, UniProt P35367)", "T4 construct": "HeLa cells endogenously expressing human histamine H1 receptor; endogenous in cells; host or cells: HeLa", "T4 sequence (P35367 whole entry)": "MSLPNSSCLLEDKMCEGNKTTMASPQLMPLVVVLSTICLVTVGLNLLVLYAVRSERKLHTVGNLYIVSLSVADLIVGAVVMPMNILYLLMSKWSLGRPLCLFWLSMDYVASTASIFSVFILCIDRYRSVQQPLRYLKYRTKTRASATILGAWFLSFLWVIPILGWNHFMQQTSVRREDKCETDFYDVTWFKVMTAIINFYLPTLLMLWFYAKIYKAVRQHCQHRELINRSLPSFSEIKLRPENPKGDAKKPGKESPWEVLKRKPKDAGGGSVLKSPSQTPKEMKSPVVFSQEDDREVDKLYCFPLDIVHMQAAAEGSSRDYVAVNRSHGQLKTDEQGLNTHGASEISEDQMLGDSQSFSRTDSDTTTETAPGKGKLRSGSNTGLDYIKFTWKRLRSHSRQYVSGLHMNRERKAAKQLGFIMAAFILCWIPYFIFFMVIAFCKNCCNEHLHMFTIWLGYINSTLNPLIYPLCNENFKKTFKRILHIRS", "assay": "Histamine-induced intracellular calcium transients in HeLa cells", "assay_type": "cell-based", "protocol": "as §4, §5"}, "[3]": {"conditions": "10 μM SUL-150, calcium transients"}, "[4]": {"conditions": "30 μM SUL-150, calcium transients"}, "[5]": {"conditions": "100 μM SUL-150, calcium transients"}}, "note": "Marks after values point to notes of the source that are not given here.", "data": [{"smiles": "Cc1c(C)c2c(c(C)c1O)CC[C@](C)(C(=O)N1CCNCC1)O2", "note": "[SUL-150, (R)(6-hydroxy-2,5,7,8-tetramethylchroman-2-yl)(piperazin-1-yl)methanone]", "values": [{"measurement": "logEC50 of phenylephrine-induced constriction responses", "setting": "α1 adrenoceptor; 10 μM test compound", "value": "−5.11 ± 0.09*"}, {"measurement": "logEC50 of phenylephrine-induced constriction responses", "setting": "α1 adrenoceptor; 30 μM test compound", "value": "−5.06 ± 0.06*"}, {"measurement": "logEC50 of phenylephrine-induced constriction responses", "setting": "α1 adrenoceptor; 100 μM test compound", "value": "−4.44 ± 0.09*"}, {"measurement": "potency in displacing the radioligand compared to SUL-151", "setting": "α1A adrenoceptor", "value": "more potent"}, {"measurement": "effect on PE-mediated constriction on top of AG1478", "setting": "EGFR transactivation", "value": "additional inhibitory effect"}, {"measurement": "logEC50 of histamine-induced constriction responses", "setting": "[1]; 30 μM SUL-150", "value": "−4.86 ± 0.08"}, {"measurement": "effect on constriction responses to histamine", "setting": "[1]; 30 μM and 100 μM, in words", "value": "did not affect"}, {"measurement": "logEC50 of histamine-induced constriction responses", "setting": "[1]; 100 μM SUL-150", "value": "−4.85 ± 0.10"}, {"measurement": "logEC50 of U46619-induced response, HeLa cells", "setting": "TP receptors; [3]", "value": "−6.83 ± 0.10"}, {"measurement": "logEC50 of U46619-induced response, HeLa cells", "setting": "TP receptors; [4]", "value": "−6.78 ± 0.18"}, {"measurement": "logEC50 of U46619-induced response, HeLa cells", "setting": "TP receptors; [5]", "value": "−6.75 ± 0.10"}, {"measurement": "effect on U46619 induced calcium transients", "setting": "TP receptors; in words", "value": "did not significantly affect"}, {"measurement": "logEC50 of U46619-induced constriction responses", "setting": "thromboxane receptors; 30 μM SUL-150", "value": "−7.58 ± 0.06"}, {"measurement": "logEC50 of U46619-induced constriction responses", "setting": "thromboxane receptors; 100 μM SUL-150", "value": "−7.50 ± 0.04"}, {"measurement": "shift in EC50 of U46619-induced constrictions", "setting": "thromboxane receptors; 100 μM SUL-150, in words", "value": "small effect size"}, {"measurement": "logEC50 of histamine-induced response, HeLa cells", "setting": "[2]; [3]", "value": "−6.45 ± 0.05"}, {"measurement": "logEC50 of histamine-induced response, HeLa cells", "setting": "[2]; [4]", "value": "−6.39 ± 0.05"}, {"measurement": "logEC50 of histamine-induced response, HeLa cells", "setting": "[2]; [5]", "value": "−6.29 ± 0.06"}, {"measurement": "effect on histamine induced calcium transients", "setting": "[2]; in words", "value": "did not significantly affect"}]}]}
